Test [1] relates to BxPC-3 cells. The experiment in a line: Cell viability assay (CellTiter Glo). The conditions noted are these: Homo sapiens, 72 h. In kind it is cell-based. How it is done:
BxPC-3 cells were grown in RPMI 1640 containing 10% FBS, 100 U/ml penicillin/streptomycin, 2 mM glutamine. All media and supplements were from Sigma-Aldrich. Cultures were routinely tested for Mycoplasma contamination. Treatments (Olaparib and BRCA2-Rad51 disruptors) were administered in culture medium supplemented with 0.6% DMSO. The same amount of DMSO was added to the control, untreated cultures.
Cell viability was assessed by CellTiter Glo, Luminescent Cell Viability Assay. Briefly, BxPC-3 cells (1×10^4/well) were plated in white 96-well plates with clear bottom and treated for 72 h with olaparib (10 μM) or with the BRCA2-Rad51 disruptors, given alone or in combination. After treatments, the plate was allowed to equilibrate at room temperature for 30 min and the CellTiter-Glo reactive was directly added to each well. The plate was kept on a shaker for 2 min to induce cell lysis and its luminescence was measured by using a Fluoroskan Ascent FL reader (Labsystems) using manufacturer's instructions.

In test [2] the target is T1, BRC4/RAD51 interaction (Homo sapiens, UniProt Q06609).
T1 construct: purchased Creative Biomart (Rad51); Life Technologies (BRC4 peptide)
T1 sequence (Q06609 1-339): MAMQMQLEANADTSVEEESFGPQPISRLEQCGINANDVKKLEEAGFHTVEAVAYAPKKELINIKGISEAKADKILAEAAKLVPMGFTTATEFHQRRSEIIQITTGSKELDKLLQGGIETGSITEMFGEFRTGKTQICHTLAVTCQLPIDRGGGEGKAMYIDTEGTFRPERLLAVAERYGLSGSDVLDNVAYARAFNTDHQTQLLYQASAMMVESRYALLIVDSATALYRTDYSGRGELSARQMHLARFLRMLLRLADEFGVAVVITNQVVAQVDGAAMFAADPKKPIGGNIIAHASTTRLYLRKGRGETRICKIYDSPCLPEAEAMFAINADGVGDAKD
The experiment in a line: Competitive ELISA assay, disruption of BRC4/RAD51 interaction. It counts as binding. Conditions: human Rad51, biotinylated BRC4 peptide. How it is done: A competitive ELISA screening assay using biotinylated BRC4 peptide to disrupt the BRC4/RAD51 interaction was performed by modifying the method described by Rajendra et al. (Nucleic Acids Res. 38 (2010) 82-96). BRC4-biotinylated peptide (N-term Biotin[…] from Life Technologies) was used to coat 384-well plates (Nunc). After washing with PBS containing 0.05% Tween-20 (PBST), and blocking with the solution BSA 1%/PBST, overnight hybridization with human Rad51 protein (NP_002866 Creative Biomart, NY) was performed. Test compounds were added in dose-response from […] in triplicate with constant DMSO 1%. Antibody raised against Rad51 (Millipore) and HRP-secondary antibody staining to develop the 3,30,5,50-tetramethyllbenzidine signal (Sigma) quenched with 1M HCl was used as the assay readout. Colorimetric measure was read on Victor5 (PerkinElmer) plate Reader. BRC4 and Rad51 were included in the assay as positive control. Results were analyzed using GraphPad Software.

Experimental findings from patent US12459914B2, “Compounds and compositions for the treatment of tumors” (FONDAZIONE ISTITUTO ITALIANO DI TECNOLOGIA, priority 2019, dated 2025) are described below.

As usually defined, the EC50 is the concentration giving half of the maximal effect. For the molecule `CC(=O)N1N=C(c2c(-c3ccccc3)c3cc(Cl)ccc3[nH]c2=O)CC1c1ccc(Br)cc1` (stereo not drawn) [d.9, 3-[2-acetyl-3-(4-bromophenyl)-3,4-dihydropyrazol-5-yl]-6-chloro-4-phenyl-1H-quinolin-2-one], the concentration for a half-maximal effect (EC50) stood at 18 µM in test [1] and 38 µM in test [2].
Turning to `CC(=O)N1N=C(c2c(-c3ccccc3)c3cc(Cl)ccc3[nH]c2=O)CC1c1ccc(-c2ccc(Cl)cc2)cc1` (stereo not drawn) [d.38, 3-[2-acetyl-3-[4-(4-chlorophenyl)phenyl]-3,4-dihydropyrazol-5-yl]-6-chloro-4-phenyl-1H-quinolin-2-one], the EC50 in test [1] amounted to 18.8 µM; in test [2], 45 µM.
With `O=C(O)CCC(=O)N1N=C(c2c(-c3ccccc3)c3cc(Cl)ccc3[nH]c2=O)CC1c1ccc(Br)cc1` (stereo not drawn) [d.8, 4-[3-(4-bromophenyl)-5-(6-chloro-2-oxo-4-phenyl-1H-quinolin-3-yl)-3,4-dihydropyrazol-2-yl]-4-oxo-butanoic acid], the EC50 in test [1] was found to be 48 µM; in test [2], 16 µM.
Consider `CC(=O)N1N=C(c2c(-c3ccccc3)c3cc(Cl)ccc3[nH]c2=O)CC1c1ccco1` (stereo not drawn) [d.21, 3-[2-acetyl-3-(2-furyl)-3,4-dihydropyrazol-5-yl]-6-chloro-4-phenyl-1H-quinolin-2-one], for which the EC50 in test [1] was 23 µM; in test [2] it was greater than 100 µM.
Taken in the same sequence, the figures for `CC(C)(C)c1ccc(C2CC(c3c(-c4ccccc4)c4cc(Cl)ccc4[nH]c3=O)=NN2C(=O)CCC(=O)O)cc1` (stereo not drawn) [d.16, 4-[3-(4-tert-butylphenyl)-5-(6-chloro-2-oxo-4-phenyl-1H-quinolin-3-yl)-3,4-dihydropyrazol-2-yl]-4-oxo-butanoic acid] were 71.2 µM and greater than 100 µM.
Regarding `Cn1ncc2cc(C3CC(c4c(-c5ccccc5)c5cc(Cl)ccc5[nH]c4=O)=NN3C(=O)CCC(=O)O)ccc21` (stereo not drawn) [d.26, 4-[5-(6-chloro-2-oxo-4-phenyl-1H-quinolin-3-yl)-3-(1-methylindazol-5-yl)-3,4-dihydropyrazol-2-yl]-4-oxo-butanoic acid], the 50% effective concentration (EC50) in test [1] was greater than 50 µM; in test [2], 13 µM.
The corresponding values for `CC(=O)N1N=C(c2c(-c3ccccc3)c3cc(Cl)ccc3[nH]c2=O)CC1c1ccccc1` (stereo not drawn) [d.47, 3-(2-acetyl-3-phenyl-3,4-dihydropyrazol-5-yl)-6-chloro-4-phenyl-1H-quinolin-2-one] are 29.7 µM and 19 µM.
`COc1ccc(C2CC(c3c(-c4ccccc4)c4cc(Cl)ccc4[nH]c3=O)=NN2C(=O)CCC(=O)O)cc1` (stereo not drawn) [d.11, 4-[5-(6-chloro-2-oxo-4-phenyl-1H-quinolin-3-yl)-3-(4-methoxyphenyl)-3,4-dihydropyrazol-2-yl]-4-oxo-butanoic acid]: the EC50 is greater than 50 µM in test [1] and greater than 100 µM in test [2].
The corresponding values for `CC(=O)N1N=C(c2c(-c3ccccc3)c3cc(Cl)ccc3[nH]c2=O)CC1c1ccc(C(F)(F)F)cc1` (stereo not drawn) [d.15, 3-[2-acetyl-3-[4-(trifluoromethyl)phenyl]-3,4-dihydropyrazol-5-yl]-6-chloro-4-phenyl-1H-quinolin-2-one] are 11.4 µM and greater than 100 µM.
The corresponding values for `CCn1ncc2cc(C3CC(c4c(-c5ccccc5)c5cc(Cl)ccc5[nH]c4=O)=NN3C(=O)CCC(=O)O)ccc21` (stereo not drawn) [d.31, 4-[5-(6-chloro-2-oxo-4-phenyl-1H-quinolin-3-yl)-3-(1-ethylindazol-5-yl)-3,4-dihydropyrazol-2-yl]-4-oxo-butanoic acid] are greater than 50 µM and greater than 100 µM.
Consider `CCCn1ncc2cc(C3CC(c4c(-c5ccccc5)c5cc(Cl)ccc5[nH]c4=O)=NN3C(=O)CCC(=O)O)ccc21` (stereo not drawn) [d.33, 4-[5-(6-chloro-2-oxo-4-phenyl-1H-quinolin-3-yl)-3-(1-propylindazol-5-yl)-3,4-dihydropyrazol-2-yl]-4-oxo-butanoic acid], for which the EC50 in test [1] and in test [2] was greater than 100 µM throughout.
As for `CC(=O)N1N=C(c2c(-c3ccccc3)c3cc(Cl)ccc3[nH]c2=O)CC1c1ccc(-c2ccc(Br)cc2)cc1` (stereo not drawn) [d.40, 3-[2-acetyl-3-[4-(4-bromophenyl)phenyl]-3,4-dihydropyrazol-5-yl]-6-chloro-4-phenyl-1H-quinolin-2-one], the EC50 in test [1] was determined as 28 µM; in test [2], 45 µM.
In the case of `CCCn1cc(-c2ccc(C3CC(c4c(-c5ccccc5)c5cc(Cl)ccc5[nH]c4=O)=NN3C(=O)CCC(=O)O)cc2)cn1` (stereo not drawn) [d.43, 4-[5-(6-chloro-2-oxo-4-phenyl-1H-quinolin-3-yl)-3-[4-(1-propylpyrazol-4-yl)phenyl]-3,4-dihydropyrazol-2-yl]-4-oxo-butanoic acid], the concentration for a half-maximal effect (EC50) in test [1] was determined as 74.2 µM; in test [2], 65 µM.
With `CC(=O)N1N=C(c2c(Cc3ccccc3)c3cc(Cl)ccc3[nH]c2=O)CC1c1ccc(F)cc1` (stereo not drawn) [d.51, 3-[2-acetyl-3-(4-fluorophenyl)-3,4-dihydropyrazol-5-yl]-4-benzyl-6-chloro-1H-quinolin-2-one], the figures for the EC50 in test [1] and in test [2] were 15.2 µM and 13 µM, respectively.
As to `O=C(O)CCC(=O)N1N=C(c2c(Cc3ccccc3)c3cc(Cl)ccc3[nH]c2=O)CC1c1ccc(Cl)cc1` (stereo not drawn) [d.55, 4-[5-(4-benzyl-6-chloro-2-oxo-1H-quinolin-3-yl)-3-(4-chlorophenyl)-3,4-dihydropyrazol-2-yl]-4-oxo-butanoic acid], the concentration for a half-maximal effect (EC50) in test [1] was determined as 23.2 µM; in test [2] it was 70 µM.
Regarding `CC(=O)N1N=C(c2c(-c3ccccc3)c3cc(Cl)ccc3[nH]c2=O)CC1c1ccc2c(cnn2C)c1` (stereo not drawn) [d.27, 3-[2-acetyl-3-(1-methylindazol-5-yl)-3,4-dihydropyrazol-5-yl]-6-chloro-4-phenyl-1H-quinolin-2-one], the figures for the EC50 in test [1] and in test [2] were 21 µM and 9 µM, respectively.
For the molecule `CCC(=O)N1N=C(c2c(-c3ccccc3)c3cc(Cl)ccc3[nH]c2=O)CC1c1ccccc1` (stereo not drawn) [d.48, 6-chloro-4-phenyl-3-(3-phenyl-2-propanoyl-3,4-dihydropyrazol-5-yl)-1H-quinolin-2-one], the EC50 in test [1] was determined as 13.7 µM; in test [2] it was 24 µM.
Regarding `CCn1cc2cc(C3CC(c4c(-c5ccccc5)c5cc(Cl)ccc5[nH]c4=O)=NN3C(=O)CCC(=O)O)ccc2n1` (stereo not drawn) [d.29, 4-[5-(6-chloro-2-oxo-4-phenyl-1H-quinolin-3-yl)-3-(2-ethylindazol-5-yl)-3,4-dihydropyrazol-2-yl]-4-oxo-butanoic acid], the EC50 in test [1] is greater than 50 µM; in test [2] it was 28 µM.
On to `O=C(O)CCC(=O)N1N=C(c2c(-c3ccccc3)c3cc(Cl)ccc3[nH]c2=O)CC1c1ccc(-c2ccc(Cl)cc2)cc1` (stereo not drawn) [d.37, 4-[5-(6-chloro-2-oxo-4-phenyl-1H-quinolin-3-yl)-3-[4-(4-chlorophenyl)phenyl]-3,4-dihydropyrazol-2-yl]-4-oxo-butanoic acid], for which the results for the EC50 in test [1] and in test [2] were 41.5 µM and 25 µM, respectively.
Taken in the same sequence, the figures for `O=C(O)CCC(=O)N1N=C(c2c(-c3ccccc3)c3cc(Cl)ccc3[nH]c2=O)CC1c1ccco1` (stereo not drawn) [d.20, 4-[5-(6-chloro-2-oxo-4-phenyl-1H-quinolin-3-yl)-3-(2-furyl)-3,4-dihydropyrazol-2-yl]-4-oxo-butanoic acid] were greater than 100 µM and greater than 100 µM.
The corresponding values for `O=C(O)CCC(=O)N1N=C(c2c(-c3ccccc3)c3cc(Cl)ccc3[nH]c2=O)CC1c1ccc(-c2ccc(F)cc2)cc1` (stereo not drawn) [d.36, 4-[5-(6-chloro-2-oxo-4-phenyl-1H-quinolin-3-yl)-3-[4-(4-fluorophenyl)phenyl]-3,4-dihydropyrazol-2-yl]-4-oxo-butanoic acid] are 31 µM and 13 µM.
